Like-named read-outs stand apart in the source and are kept apart here.
Experiments:
CYP109E1 [1] = molecular target: CYP109E1 (Priestia megaterium, UniProt D5DKI8, E245A); assay: in vitro turnover of purified mutant with Adx4-108/AdR, HPLC; type: biochemical
CYP109E1 [2] = molecular target: CYP109E1 (Priestia megaterium, UniProt D5DKI8, K187A); assay: as above; type: biochemical
CYP109E1 [3] = molecular target: T1, CYP109E1 (Priestia megaterium, UniProt D5DKI8); assay: co-crystal structure; type: binding
T1 sequence (D5DKI8 1-404): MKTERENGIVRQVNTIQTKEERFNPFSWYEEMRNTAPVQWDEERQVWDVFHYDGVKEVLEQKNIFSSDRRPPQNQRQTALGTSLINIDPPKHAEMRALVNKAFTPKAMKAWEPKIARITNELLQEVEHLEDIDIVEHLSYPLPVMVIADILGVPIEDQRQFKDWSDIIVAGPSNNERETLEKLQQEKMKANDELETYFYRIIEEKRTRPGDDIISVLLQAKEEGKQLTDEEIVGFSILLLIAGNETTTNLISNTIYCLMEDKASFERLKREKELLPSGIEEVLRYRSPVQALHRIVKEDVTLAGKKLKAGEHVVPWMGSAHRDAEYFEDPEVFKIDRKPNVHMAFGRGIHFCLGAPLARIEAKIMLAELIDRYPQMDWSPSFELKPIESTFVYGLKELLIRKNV

CYP109E1 [4] = molecular target: T1, CYP109E1; assay: co-crystal structure; type: binding; remark: listed apart in the source

Row | SMILES | Catalytic activity for the formation of 16β-OH-TES, nmol.(nmol P450)^-1.min^-1 (CYP109E1 [1]) | Catalytic activity for the formation of 16β-OH-TES, nmol.(nmol P450)^-1.min^-1 (CYP109E1 [2]) | Kd (CYP109E1 [3]) [µM] | Kd (CYP109E1 [4]) [µM]
1 | C[C@]12CC[C@H]3[C@@H](CCC4=CC(=O)CC[C@@]43C)[C@@H]1CC[C@@H]2O [compound 11, testosterone] | 4.69 ± 0.04 nmol·(nmol P450)^−1·min^−1 | 1.43 ± 0.06 nmol·(nmol P450)^−1·min^−1 | 105 ± 10 | –
2 | C[C@]12C[C@H](O)[C@H]3[C@@H](CCC4=CC(=O)CC[C@@]43C)[C@@H]1CC[C@@H]2C(=O)CO [compound 4, corticosterone] | – | – | – | 91 ± 8

Reference: article PMC5132081 (The Febs Journal, 2016)
